In patent US8796256B2 (Janssen Pharmaceutica NV, priority 2010, dated 2014):

target: T1, ERR1 (also known as ERR-α or ERR-1) (Homo sapiens, UniProt P11474); test: TR-FRET assay (disruption of co-activator peptide binding to ERR1 LBD); type: biochemical; details: 6 nM 6His-ERR1LBD, 6 nM GST-SRC-2 peptide; average of 3 independent experiments
T1 sequence (P11474 193-421 limits assumed): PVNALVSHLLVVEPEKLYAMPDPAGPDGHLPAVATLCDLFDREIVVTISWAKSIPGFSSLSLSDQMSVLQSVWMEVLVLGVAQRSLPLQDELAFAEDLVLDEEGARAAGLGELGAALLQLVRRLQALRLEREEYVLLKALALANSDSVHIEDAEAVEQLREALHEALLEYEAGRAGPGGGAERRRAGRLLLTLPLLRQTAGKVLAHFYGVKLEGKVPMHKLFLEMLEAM
In short: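 His-tagged ERR1 ligand-binding domain and GST-labelled SRC-2 peptide, each 6 nM, equilibrated at 25° C for 4-18 h in Tris pH 8/Hepes/KCl/DTT/delipidated BSA buffer. Compound-induced loss of co-activator binding read as Eu cryptate→XL665 energy transfer; values from hyperbolic curve fits averaged over 3 independent runs.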

| EC50 | SMILES |
| --- | --- |
| 77 nM | CC(C)(C)NS(=O)(=O)CN1C(=O)S/C(=C\c2ccc3c(cnn3Cc3ccc(Cl)cc3C(F)(F)F)c2)C1=O [Compound 160, N-tert-Butyl-1-[(5Z)-5-({1-[4-chloro-2-(trifluoromethyl)benzyl]-1H-indazol-5-yl}methylidene)-2,4-dioxo-1,3-thiazolidin-3-yl]methanesulfonamide] |
| 152 nM | O=C1S/C(=C\c2ccc3c(cnn3Cc3ccc(Cl)cc3C(F)(F)F)c2)C(=O)N1CCc1cccnc1 [Compound 109, (5Z)-5-({1-[4-Chloro-2-(trifluoromethyl)benzyl]-1H-indazol-5-yl}methylidene)-3-(2-pyridin-3-ylethyl)-1,3-thiazolidine-2,4-dione] |
| 26 nM | O=C1S/C(=C\c2ccc3c(cnn3Cc3ccc(Cl)cc3C(F)(F)F)c2)C(=O)N1CC1(F)CCNCC1 [Compound 303, (5Z)-5-({1-[4-Chloro-2-(trifluoromethyl)benzyl]-1H-indazol-5-yl}methylidene)-3-[(4-fluoropiperidin-4-yl)methyl]-1,3-thiazolidine-2,4-dione] |
| 500 nM | CN(C)CCN1C(=O)S/C(=C\c2ccc3c(ccn3Cc3ccc(C#N)cc3C(F)(F)F)c2)C1=O [Compound 246, 4-({5-[(Z)-{3-[2-(Dimethylamino)ethyl]-2,4-dioxo-1,3-thiazolidin-5-ylidene}methyl]-1H-indol-1-yl}methyl)-3-(trifluoromethyl)benzonitrile] |
| 127 nM | O=C1S/C(=C\c2ccc3c(cnn3Cc3ccc(Cl)cc3C(F)(F)F)c2)C(=O)N1CCN1CC(F)(F)C1 [Compound 75, (5Z)-5-({1-[4-Chloro-2-(trifluoromethyl)benzyl]-1H-indazol-5-yl}methylidene)-3-[2-(3,3-difluoroazetidin-1-yl)ethyl]-1,3-thiazolidine-2,4-dione] |
| 180 nM | CN(C)CCN1C(=O)S/C(=C\c2ccc3c(cnn3Cc3ccc(F)cc3C(F)(F)F)c2)C1=O [Compound 5, (5Z)-3-[2-(Dimethylamino)ethyl]-5-[(1-{[4-fluoro-2-(trifluoromethyl)phenyl]methyl}-1H-indazol-5-yl)methylidene]-1,3-thiazolidine-2,4-dione] |
| 54 nM | O=C1S/C(=C\c2ccc3c(cnn3Cc3ccc(Cl)cc3C(F)(F)F)c2)C(=O)N1C[C@@H]1C[C@@H](O)CN1CCO [Compound 186, (5Z)-5-({1-[4-Chloro-2-(trifluoromethyl)benzyl]-1H-indazol-5-yl}methylidene)-3-{[(2S,4R)-4-hydroxy-1-(2-hydroxyethyl)pyrrolidin-2-yl]methyl}-1,3-thiazolidine-2,4-dione] |
| 39 nM | O=C1S/C(=C\c2ccc3c(cnn3Cc3ccc(Cl)cc3C(F)(F)F)c2)C(=O)N1CCNS(=O)(=O)CCl [Compound 385, 1-Chloro-N-{2-[(5Z)-5-({1-[4-chloro-2-(trifluoromethyl)benzyl]-1H-indazol-5-yl}methylidene)-2,4-dioxo-1,3-thiazolidin-3-yl]ethyl}methanesulfonamide] |
| 68 nM | O=C1S/C(=C\c2ccc3c(cnn3Cc3ccc(Cl)cc3C(F)(F)F)c2)C(=O)N1CC1CNC1 [Compound 101, (5Z)-3-(Azetidin-3-ylmethyl)-5-({1-[4-chloro-2-(trifluoromethyl)benzyl]-1H-indazol-5-yl}methylidene)-1,3-thiazolidine-2,4-dione] |
| 48 nM | O=C1S/C(=C\c2ccc3c(cnn3Cc3ccc(Cl)cc3C(F)(F)F)c2)C(=O)N1Cc1c[nH]cn1 [Compound 405, (5Z)-5-({1-[4-Chloro-2-(trifluoromethyl)benzyl]-1H-indazol-5-yl}methylidene)-3-(1H-imidazol-4-ylmethyl)-1,3-thiazolidine-2,4-dione] |
| 65 nM | O=C(O)/C=C/CN1C(=O)S/C(=C\c2ccc3c(cnn3Cc3ccc(Cl)cc3C(F)(F)F)c2)C1=O [Compound 376, (2E)-4-[(5Z)-5-({1-[4-Chloro-2-(trifluoromethyl)benzyl]-1H-indazol-5-yl}methylidene)-2,4-dioxo-1,3-thiazolidin-3-yl]but-2-enoic acid] |
| 51 nM | C[C@H](N)CN1C(=O)S/C(=C\c2ccc3c(cnn3Cc3ccc(C(F)(F)F)cc3C(F)(F)F)c2)C1=O [Compound 81, (5Z)-3-[(2S)-2-Aminopropyl]-5-({1-[2,4-bis(trifluoromethyl)benzyl]-1H-indazol-5-yl}methylidene)-1,3-thiazolidine-2,4-dione] |
| 20 nM | CCN(CC)CCN1C(=O)S/C(=C\c2ccc3c(cnn3Cc3ccc(OC)cc3C(F)(F)F)c2)C1=O [Compound 18, (5Z)-3-[2-(Diethylamino)ethyl]-5-({1-[4-methoxy-2-(trifluoromethyl)benzyl]-1H-indazol-5-yl}methylidene)-1,3-thiazolidine-2,4-dione] |
| 54 nM | CN1C[C@@H](N2C(=O)S/C(=C\c3ccc4c(cnn4Cc4ccc(Cl)cc4C(F)(F)F)c3)C2=O)[C@@H](F)C1 (relative stereo) [Compound 323, (5Z)-5-({1-[4-Chloro-2-(trifluoromethyl)benzyl]-1H-indazol-5-yl}methylidene)-3-[cis-4-fluoro-1-methylpyrrolidin-3-yl]-1,3-thiazolidine-2,4-dione] |
| 26 nM | CS(=O)(=O)NN1C(=O)S/C(=C\c2ccc3c(cnn3Cc3ccc(C(F)(F)F)cc3C(F)(F)F)c2)C1=O [Compound 360, N-[(5Z)-5-({1-[2,4-Bis(trifluoromethyl)benzyl]-1H-indazol-5-yl}methylidene)-2,4-dioxo-1,3-thiazolidin-3-yl]methanesulfonamide] |

Continued, molecule first:

| SMILES | EC50 |
| --- | --- |
| NC(=O)CN1CCC[C@H]1CN1C(=O)S/C(=C\c2ccc3c(cnn3Cc3ccc(Cl)cc3C(F)(F)F)c2)C1=O [Compound 297, 2-[(2S)-2-{[(5Z)-5-({1-[4-Chloro-2-(trifluoromethyl)benzyl]-1H-indazol-5-yl}methylidene)-2,4-dioxo-1,3-thiazolidin-3-yl]methyl}pyrrolidin-1-yl]acetamide] | 76 nM |
| COC(=O)N1CCN(C(=O)CN2C(=O)S/C(=C\c3ccc4c(cnn4Cc4ccc(Cl)cc4C(F)(F)F)c3)C2=O)S1(=O)=O [Compound 340, Methyl 5-{[(5Z)-5-({1-[4-chloro-2-(trifluoromethyl)benzyl]-1H-indazol-5-yl}methylidene)-2,4-dioxo-1,3-thiazolidin-3-yl]acetyl}-1,2,5-thiadiazolidine-2-carboxylate 1,1-dioxide] | 53 nM |
| N#CCN1CC[C@@H](N2C(=O)S/C(=C\c3ccc4c(cnn4Cc4ccc(Cl)cc4C(F)(F)F)c3)C2=O)[C@H](F)C1 [Compound 388, {(3R,4R)-4-[(5Z)-5-({1-[4-Chloro-2-(trifluoromethyl)benzyl]-1H-indazol-5-yl}methylidene)-2,4-dioxo-1,3-thiazolidin-3-yl]-3-fluoropiperidin-1-yl}acetonitrile] | 34 nM |
| CCN1CC[C@@H](N2C(=O)S/C(=C\c3ccc4c(cnn4Cc4ccc(C(F)(F)F)cc4C(F)(F)F)c3)C2=O)[C@H](F)C1 (relative stereo) [Compound 336, (5Z)-5-({1-[2,4-Bis(trifluoromethyl)benzyl]-1H-indazol-5-yl}methylidene)-3-[trans-1-ethyl-3-fluoropiperidin-4-yl]-1,3-thiazolidine-2,4-dione] | 293 nM |
| O=C1S/C(=C\c2ccc3c(cnn3Cc3ccc(Cl)cc3C(F)(F)F)c2)C(=O)N1CC(=O)N1CCNS1(=O)=O [Compound 415] | 12 nM |
| O=C1CNCCC1N1C(=O)S/C(=C\c2ccc3c(cnn3Cc3ccc(Cl)cc3C(F)(F)F)c2)C1=O (centres unmarked) [Compound 341, (5Z)-5-({1-[4-Chloro-2-(trifluoromethyl)benzyl]-1H-indazol-5-yl}methylidene)-3-(3-oxopiperidin-4-yl)-1,3-thiazolidine-2,4-dione] | 39 nM |
| O=C1S/C(=C\c2ccc3c(cnn3Cc3ccc(Cl)cc3C(F)(F)F)c2)C(=O)N1[C@@H]1CCNC[C@H]1O (relative stereo) [Compound 270, (5Z)-5-({1-[4-Chloro-2-(trifluoromethyl)-benzyl]-1H-indazol-5-yl}methylidene)-3-[trans-3-hydroxypiperidin-4-yl]-1,3-thiazolidine-2,4-dione] | 25 nM |
| O=C1S/C(=C\c2ccc3c(cnn3Cc3ccc(Cl)cc3C(F)(F)F)c2)C(=O)N1[C@@H]1CNC[C@H]1O (relative stereo) [Compound 316, (5Z)-5-({1-[4-Chloro-2-(trifluoromethyl)benzyl]-1H-indazol-5-yl}methylidene)-3-[trans-4-hydroxypyrrolidin-3-yl]-1,3-thiazolidine-2,4-dione] | 36 nM |
| O=C1S/C(=C\c2ccc3c(cnn3Cc3ccc(Cl)cc3C(F)(F)F)c2)C(=O)N1C[C@H]1CN2CCOC[C@H]2CO1 [Compound 204, (5Z)-5-({1-[4-Chloro-2-(trifluoromethyl)benzyl]-1H-indazol-5-yl}methylidene)-3-[(3R,9aS)-hexahydro-1H-[1,4]oxazino[3,4-c] [1,4]oxazin-3-ylmethyl]-1,3-thiazolidine-2,4-dione] | 46 nM |
| O=C(O)CN1C(=O)S/C(=C\c2ccc3c(cnn3[C@@H]3CCc4cc(Cl)ccc43)c2)C1=O [Compound 179, [(5Z)-5-({1-[(1R)-5-Chloro-2,3-dihydro-1H-inden-1-yl]-1H-indazol-5-yl}methylidene)-2,4-dioxo-1,3-thiazolidin-3-yl]acetic acid] | 3450 nM |
| COC(=O)CN1C(=O)S/C(=C\c2ccc3c(ccn3Cc3ccc(C(F)(F)F)cc3C(F)(F)F)c2)C1=O [Compound 238, Methyl {(5Z)-5-[(1-{[2,4-bis(trifluoromethyl)phenyl]methyl}-1H-indol-5-yl)methylidene]-2,4-dioxo-1,3-thiazolidin-3-yl}acetate] | 1800 nM |
